Experimental data reported in patent publication US12611432B2 (priority 2017, dated 2026).

Tests used:
[1] = system: PTEN KO orthotopic tumors; test: FTY720 blockade of T cell recruitment in PTEN KO tumor-bearing mice; assay type: in vivo
Experimental: Survival endpoint was defined by the appearance of hemorrhagic abdominal ascites and/or decreased grooming, ambulation, or piloerection. Volume of all tumor experiments was calculated using caliper measurements at π/6×L×W×H, where L is length of longest axis of the tumor, and W and H are the perpendicular width and height, respectively.
For all in vivo experiments, CP1 was administered intra-urethrally on day 8 post-tumor injection. […]
The Ability of CP1 to Potentiate PD-1 Blockade is Partially Dependent on Increased TIL Recruitment To determine if CP1's ability to recruit lymphocytes into the tumor is necessary for its proven synergy with PD-1 blockade, fingolimod (FTY720), a sphingosine-1 phosphate mimetic that blocks egress of T cells from the lymph nodes into peripheral tissues, was administered. PTEN KO orthotopic tumor-bearing mice were treated with CP1 and anti-PD-1, with the addition of FTY720 administration beginning immediately before CP1 administration, to specifically block CP1-induced T cell infiltration into the tumor without inhibiting the quantity or function of the baseline TILs present in these tumors.

Myc-CaP cells = assay type: cell-based, murine; conditions: 1 μM mitoxantrone, live or heat killed CP1 MOI 10, 24 or 72 hours
Experimental: (a) LDH level, as a measure of cell death, from CP1 and Myc-CaP co-culture, performed in triplicates. (b-i) Myc-CaP cell were co-cultured with Mx, CP1(MOI 1), or MG1655 (MOI 1) (b, d, g) in normal media or (c, e, f, h, i) with gentamicin (+ G) added after 2 hours. (b, c) ICD was measured via HMGB1 (ELISA, 72 hours), ATP (luminescence assay, 72 hours), and calreticulin (flow cytometry, 24 or 72 hours), performed in biological triplicates, technical duplicates. (d-f) Caspase 3/7 activity (luminescence assay) was measured at (d, e) 6 hours or (f) 24 hours, (d) normalized to cell count (MTT assay), performed in sextuplicates. (g, h) Early stage apoptosis (Annexin V^+PI^-) and late stage apoptosis (Annexin V+PI+) were determined by flow cytometry after 24 hours, performed in triplicates. (i) Western blot analysis of phosphorylated and total MLKL, RIP1, RIP3, full length and cleaved PARP, and β-actin after 24 hours, performed in triplicates.
For indicated in vitro assays, CP1 was heat killed at 70° C. for 45 minutes. […] Additionally, supernatant was assessed for lactate dehydrogenase (LDH) levels as a measure of cell death (CytoTox 96 Non-Radioactive Cytotoxicity Assay, Promega). […] Cells counts were taken at the times of supernatant collection, which were frozen at −80° C. until use for quantifying secreted ATP (Bioluminescent Assay Kit, Sigma) and HMGB1 (ELISA, Tecan Trading).

[2] = system: castration-resistant prostate cancer (CRPC); conditions: monotherapy, patients with CRPC; cited from earlier work

Molecule	overall survival (OS) [2]	also measured
CCCCCCCCc1ccc(CCC(N)(CO)CO)cc1 [FTY720, Fingolimod]	–	tumor volume, mean [1]: 1394 mm^3
O=C1c2c(O)ccc(O)c2C(=O)c2c(NCCNCCO)ccc(NCCNCCO)c21 [mitoxantrone]	–	ICD markers: secreted HMGB1, secreted ATP, cell surface calreticulin (Myc-CaP cells): elevated
ipilimumab	no improvement in overall survival (OS)	–
nivolumab	no improvement in overall survival (OS)	–
